For orientation: EC50 means the concentration giving half of the maximal effect.

The structures appear in SMILES notation. Where a name gives a salt, the structure may show the parent alone.

EC50 data for 37 compounds are collected here from patent US20120065187A1 (ALCON RESEARCH, LTD, priority 2008, published 2012).

This assay has as its target T1, human H4 (Homo sapiens, UniProt Q9H3N8).
T1 construct: host or cells: CHO-K1
Nature of the assay: In vitro histamine receptor cell-based assay (aequorin bioluminescence), H4 antagonism. The note with it: CHO-K1 cells expressing human H4, aequorin and Gα16; histamine at EC80; read-out: H4 Antagonist EC50. As for the experimental part: The cell-based assays utilize an aequorin dependent bioluminescence signal. Doubly-transfected, stable CHO-K1 cell lines expressing human H1 or H4, mitochondrion-targeted aequorin, and (H4 only) human G protein Gα16 are obtained from Perkin-Elmer. Cells are maintained in F12 (Ham's) growth medium, containing 10% (vol./vol.) fetal bovine serum, penicillin (100 IU/mL), streptomycin (0.1 mg/mL), zeocin (0.25 mg/mL) and geneticin (0.40 mg/mL). Cell media components are from Invitrogen, Inc. One day prior to assay, the growth medium is replaced with the same, excluding zeocin and geneticin.
For assay preparation, growth medium is aspirated, and cells are rinsed with calcium-free, magnesium-free phosphate-buffered saline, followed by two to three minute incubation in Versene (Invitrogen, Inc.) at 37° C. Assay medium (DMEM:F12 [50:50], phenol-red free, containing 1 mg/mL protease-free bovine serum albumin) is added to collect the released cells, which are then centrifuged. The cell pellet is re-suspended in assay medium, centrifuged once more, and re-suspended in assay medium to a final density of 5×10^6 cells/mL. Coelenterazine-h dye (500 μM in ethanol) is added to a final concentration of 5 μM, and mixed immediately. The conical tube containing the cells is then wrapped with foil to protect the light-sensitive dye. The cells are incubated for four hours further at room temperature (approximately 21° C.) with end-over-end rotation to keep them in suspension.
Just before assay, the dye-loaded cells are diluted to 0.75×10^6 cells/mL (H1 receptor) or 1.5×10^6 cells/mL (H4 receptor) with additional assay medium. Cells are dispensed to 1536 well micro-titer plates at 3 μL/well. To assay receptor antagonism, 60 nl of 100× concentration test compounds in 100% dimethyl sulfoxide (DMSO) are dispensed to the wells, one compound per well, by passive pin transfer, and the plates are incubated for 15 minutes at room temperature. […] The pipette dispenses 3 μL/well of agonist (histamine, at twice the final concentration, where final concentration is a previously determined EC80) in assay medium, with concurrent bioluminescence detection. Agonist activity of test compounds is excluded by separate assays that measure response to test compounds immediately, without added histamine agonist.
CCD image capture on the Lumilux includes a 5 second baseline read prior to agonist addition, and generally a 40 second read per plate after agonist addition. A decrease in bioluminescence signal (measured either as area-under-the-curve, or maximum signal amplitude minus minimum signal amplitude) correlates with receptor antagonism in a dose dependent manner. The negative control is DMSO lacking any test compound. For antagonist assays, the positive controls are diphenhydramine (2-Diphenylmethoxy-N,N-dimethylethylamine, 10 μM final concentration, H1 receptor) or JNJ7777120 (1-[(5-Chloro-1H-indol-2-yl)carbonyl]-4-methyl-piperazine, 10 μM final concentration, H4 receptor). Efficacy is measured as a percentage of positive control activity.

T1 sequence (Q9H3N8 whole entry): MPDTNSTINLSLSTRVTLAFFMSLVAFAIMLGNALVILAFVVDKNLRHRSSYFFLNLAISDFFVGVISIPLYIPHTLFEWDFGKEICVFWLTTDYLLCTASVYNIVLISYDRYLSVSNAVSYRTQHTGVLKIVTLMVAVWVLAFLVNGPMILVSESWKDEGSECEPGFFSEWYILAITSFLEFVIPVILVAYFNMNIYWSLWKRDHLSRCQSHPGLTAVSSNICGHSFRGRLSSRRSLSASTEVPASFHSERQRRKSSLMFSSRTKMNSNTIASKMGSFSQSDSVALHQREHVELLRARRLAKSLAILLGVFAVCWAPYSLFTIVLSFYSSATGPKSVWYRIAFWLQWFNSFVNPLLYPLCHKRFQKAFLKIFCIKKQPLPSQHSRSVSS

Take `CN1CCN(c2nc3ccc(Br)cc3n3nnnc23)CC1` [Example 204, 8-bromo-4-(4-methylpiperazin-1-yl)tetrazolo[1,5-a]quinoxaline]: the EC50 is less than 10 µM.
Next, `CN1CCN(c2nc3cc(F)c(F)cc3c3conc23)CC1` [Example 226, 7,8-difluoro-4-(4-methylpiperazin-1-yl)isoxazolo[3,4-c]quinoline]: less than 10 µM; `CN1CCN(c2nc3ccc(C(F)(F)F)c(F)c3n3nnnc23)CC1` [Example 171, 9-Fluoro-4-(4-methylpiperazin-1-yl)-8-(trifluoromethyl)tetrazolo[1,5-a]quinoxaline]: less than 10 µM.
With `Cc1nc2c3cc(Cl)cc(F)c3nc(N3CCNCC3)n2n1` [Example 247, 9-chloro-7-fluoro-2-methyl-5-(piperazin-1-yl)-[1,2,4]triazolo[1,5-c]quinazoline], the EC50 was less than 10 µM.
With `Fc1cc(C(F)(F)F)cc2c1nc(N1CCNCC1)c1nnnn12` [Example 206, 6-fluoro-4-(piperazin-1-yl)-8-(trifluoromethyl)tetrazolo[1,5-a]quinoxaline hydrochloride], the EC50 is less than 10 µM.
For `Fc1cc2nc(N3CCNCC3)c3nnnn3c2cc1Br` [Example 211, 8-bromo-7-fluoro-4-(piperazin-1-yl)tetrazolo[1,5-a]quinoxaline], the EC50 was less than 10 µM.
For `CN1CCN(c2nc3cc(Br)ccc3c3conc23)CC1` [Example 228, 7-bromo-4-(4-methylpiperazin-1-yl)isoxazolo[3,4-c]quinoline], the EC50 was less than 10 µM.
In the case of `CN1CCN(c2nc3c(F)cc(C(F)(F)F)cc3n3nnnc23)CC1` [Example 207, 6-fluoro-4-(4-methylpiperazin-1-yl)-8-(trifluoromethyl)tetrazolo[1,5-a]quinoxaline hydrochloride], the EC50 was less than 10 µM.
Consider `Clc1ccc2nc(N3CCN4CCCC4C3)c3nocc3c2c1` (stereo not shown) [Example 230, 8-chloro-4-(hexahydropyrrolo[1,2-a]pyrazin-2(1H)-yl)isoxazolo[3,4-c]quinoline], for which the EC50 was less than 10 µM.
The value for `Cc1nc2c(N3CCNCC3)nc3cc(F)c(C)cc3n2n1` [Example 240, 7-fluoro-2,8-dimethyl-4-(piperazin-1-yl)-[1,2,4]triazolo[1,5-a]quinoxaline] was less than 10 µM; that for `Cc1nc2c3cc(Br)cc(F)c3nc(N3CCN(C)CC3)n2n1` [Example 248, 9-bromo-7-fluoro-2-methyl-5-(4-methylpiperazin-1-yl)-[1,2,4]triazolo[1,5-c]quinazoline] was less than 10 µM.
Consider `Brc1ccc2nc(N3CCNCC3)c3nnnn3c2c1` [Example 205, 8-bromo-4-(piperazin-1-yOtetrazolo[1,5-a]quinoxaline], for which the EC50 was less than 10 µM.
As for `Cc1nc2c(N3CCN(C)CC3)nc3ccc(Br)cc3n2n1` [Example 241, 8-bromo-2-methyl-4-(4-methylpiperazin-1-yl)-[1,2,4]triazolo[1,5-a]quinoxaline], the concentration for a half-maximal effect (EC50) was less than 10 µM.
For the compound `Cn1cc2c(n1)c(N1CCNCC1)nc1ccc(Br)cc12` [Example 235, 8-bromo-2-methyl-4-(piperazin-1-yl)-2H-pyrazolo[3,4-c]quinoline], the EC50 is less than 10 µM.
Next, `FC(F)(F)c1ccc2c(c1)nc(N1CCNCC1)c1nocc12` [Example 221, 4-(piperazin-1-yl)-7-(trifluoromethyl)isoxazolo[3,4-c]quinoline]: greater than 10 µM.
Take `CN1CCN(c2nc3c(F)cc(Br)cc3n3cnnc23)CC1` [Example 208, 8-bromo-6-fluoro-4-(4-methylpiperazin-1-yl)-[1,2,4]triazolo[4,3-a]quinoxaline]: the EC50 is less than 10 µM.
As for `CN1CCN(c2nc3cc(Cl)ccc3c3conc23)CC1` [Example 224, 7-chloro-4-(4-methylpiperazin-1-yl)isoxazolo[3,4-c]quinoline], the EC50 was less than 10 µM.
Next, `CN1CCN(c2nc3ccc(Br)cc3c3c[nH]nc23)CC1` [Example 232, 8-bromo-4-(4-methylpiperazin-1-yl)-2H-pyrazolo[3,4-c]quinoline]: less than 10 µM.
The value for `CN1CCN(c2nc3cc(Cl)c(F)cc3n3nnnc23)CC1` [Example 203, 7-chloro-8-fluoro-4-(4-methylpiperazin-1-yl)tetrazolo[1,5-a]quinoxaline] was less than 10 µM; that for `CN1CCN(c2nc3cc(F)c(Br)cc3n3nnnc23)CC1` [Example 212, 8-bromo-7-fluoro-4-(4-methylpiperazin-1-yl)tetrazolo[1,5-a]quinoxaline] was less than 10 µM.
The value for `Cc1nc2c(N3CCN(C)CC3)nc3cc(F)c(Br)cc3n2n1` [Example 237, 8-bromo-7-fluoro-2-methyl-4-(4-methylpiperazin-1-yl)-[1,2,4]triazolo[1,5-a]quinoxaline] was less than 10 µM; that for `Cc1nc2c(N3CCNCC3)nc3ccc(Br)cc3n2n1` [Example 242, 8-bromo-2-methyl-4-(piperazin-1-yl)-[1,2,4]triazolo[1,5-a]quinoxaline] was less than 10 µM; that for `Clc1ccc2c(c1)nc(N1CCNCC1)c1nocc12` [Example 225, 7-chloro-4-(piperazin-1-yl)isoxazolo[3,4-c]quinoline] was less than 10 µM.
As for `CN1CCN(c2nc3c(F)cc(Br)cc3n3nnnc23)CC1` [Example 210, 8-bromo-6-fluoro-4-(4-methylpiperazin-1-yl)tetrazolo[1,5-a]quinoxaline], the EC50 is less than 10 µM.
As to `Cc1nc2c(N3CCNCC3)nc3cc(F)c(Br)cc3n2n1` [Example 238, 8-bromo-7-fluoro-2-methyl-4-(piperazin-1-yl)-[1,2,4]triazolo[1,5-a]quinoxaline], the EC50 was less than 10 µM.
As to `CCOC(=O)c1nc2c(N3CCN(C)CC3)nc3ccc(Cl)cc3n2n1` [Example 244, Ethyl 8-chloro-4-(4-methylpiperazin-1-yl)-[1,2,4]triazolo[1,5-a]quinoxaline-2-carboxylate], the EC50 was greater than 10 µM.
Consider `Cc1nc2c3cc(Cl)cc(F)c3nc(N3CCN(C)CC3)n2n1` [Example 246, 9-chloro-7-fluoro-2-methyl-5-(4-methylpiperazin-1-yl)-[1,2,4]triazolo[1,5-c]quinazoline], for which the EC50 was less than 10 µM.
For the compound `CN1CCN(c2nc3ccc(Cl)cc3n3ncnc23)CC1` [Example 243, 8-chloro-4-(4-methylpiperazin-1-yl)-[1,2,4]triazolo[1,5-a]quinoxaline], the EC50 was less than 10 µM.
Regarding `Brc1ccc2c(c1)nc(N1CCNCC1)c1nocc12` [Example 229, 7-bromo-4-(piperazin-1-yl)isoxazolo[3,4-c]quinoline], the EC50 was greater than 10 µM.
As to `CN1CCN(c2nc3ccc(Br)cc3c3cn(C)nc23)CC1` [Example 234, 8-bromo-2-methyl-4-(4-methylpiperazin-1-yl)-2H-pyrazolo[3,4-c]quinoline], the EC50 is less than 10 µM.
For the compound `Fc1cc(Br)cc2c1nc(N1CCNCC1)c1nncn12` [Example 209, 8-bromo-6-fluoro-4-(piperazin-1-yl)-[1,2,4]triazolo[4,3-a]quinoxaline], the EC50 was less than 10 µM.
`Fc1cc2c(cc1Cl)nc(N1CCNCC1)c1nnnn12` [Example 202, 7-chloro-8-fluoro-4-(piperazin-1-yl)tetrazolo[1,5-a]quinoxaline]: the EC50 was less than 10 µM.
In the case of `Clc1ccc2nc(N3CCN4CCCC4C3)c3nnnn3c2c1` (stereo not shown) [Example 213, 8-chloro-4-(hexahydropyrrolo[1,2-a]pyrazin-2(1H)-yl)tetrazolo[1,5-a]quinoxaline], the EC50 was less than 10 µM.
Take `Cc1nc2c(N3CCN(C)CC3)nc3cc(F)c(C)cc3n2n1` [Example 239, 7-fluoro-2,8-dimethyl-4-(4-methylpiperazin-1-yl)-[1,2,4]triazolo[1,5-a]quinoxaline]: the EC50 is less than 10 µM.
With `Fc1cc2nc(N3CCNCC3)c3nocc3c2cc1F` [Example 227, 7,8-difluoro-4-(piperazin-1-yl)isoxazolo[3,4-c]quinoline], the EC50 was less than 10 µM.
The value for `Brc1ccc2nc(N3CCNCC3)c3n[nH]cc3c2c1` [Example 233, 8-bromo-4-(piperazin-1-yl)-2H-pyrazolo[3,4-c]quinoline] was less than 10 µM; that for `FC(F)(F)c1ccc2nc(N3CCNCC3)c3[nH]ncc3c2c1` [Example 231, 4-(piperazin-1-yl)-8-(trifluoromethyl)-3H-pyrazolo[3,4-c]quinoline] was less than 10 µM.
